Columns and labels:
[1] = test system: small intestine hyperplasia in minor mice; assay: Test on promoting small intestinal hyperplasia in minor Kunming mice; assay type: in vivo
Description: Forty minor Kunming mice weighing 10 to 20 g were equally divided into […], 10 mice each group. The control group was subcutaneously administered with the placebo once a day for 9 days, the Ted group was subcutaneously administered at 1 mg/Kg once a day for 9 days, and the PF01 group and the PF04 group were subcutaneously administered at 3 mg/Kg once every three days for a total of 3 times. All experimental animals were weighed before administration. On the 10th day after administration, the body weight was weighed, blood was collected, and small intestine length and weight were determined.

[2] = test system: 5-FU-induced diarrhea and intestinal mucosa injury model; assay: Diarrhea and intestinal mucosa injury model caused by 5-FU in rats; assay type: in vivo, SD rats; conditions: for Number of animals with diarrhea (denominator): 10 rats each group
Description: Forty adult SD rats weighing 200 to 300 g were equally divided into 4 groups, 10 rats each group. A Model group was subcutaneously administered with the placebo once a day for 9 days, a Ted group was subcutaneously administered at 1 mg/Kg once a day for 9 days, and a PF01 group and a PF04 group were subcutaneously administered at 3 mg/Kg once every three days for a total of 3 times. All rats were intraperitoneally injected with 5-FU at 50 mg/Kg once a day on the 4th day to the 6th day. Diarrhea and body weight changes in rats were recorded every day after the first administration of 5-FU. On the 10th day, body weight was weighed, blood was collected, and jejunum was taken for case sections. Diarrhea was identified based on scores, with 0 indicating no diarrhea, 1 indicating mild diarrhea with feces adhering to the anus, 2 indicating moderate diarrhea with feces adhering to the hind legs and tail, 3 indicating severe diarrhea with feces adhering to the front legs and abdomen, and 4 indicating death. In Table 6, the numerator represents the diarrhea score, and the denominator represents the number of animals with diarrhea.

[3] = cited from earlier work
[4] = rats; cited from earlier work
[5] = 10th day, Ted 1 mg/Kg sc once a day for 9 days, PF01/PF04 3 mg/Kg sc once every three days, 3 times
[6] = 24 h after the administration of 5-FU
[7] = 48 h after the administration of 5-FU
[8] = 72 h after the administration of 5-FU
[9] = 96 h after the administration of 5-FU

With `CC[C@H](C)[C@H](NC(=O)[C@H](Cc1ccccc1)NC(=O)[C@H](CC(=O)O)NC(=O)[C@H](CCCNC(=N)N)NC(=O)[C@H](C)NC(=O)[C@H](C)NC(=O)[C@H](CC(C)C)NC(=O)[C@H](CC(N)=O)NC(=O)[C@H](CC(=O)O)NC(=O)[C@H](CC(C)C)NC(=O)[C@@H](NC(=O)[C@@H](NC(=O)[C@H](CC(N)=O)NC(=O)[C@H](CCSC)NC(=O)[C@H](CCC(=O)O)NC(=O)[C@H](CC(=O)O)NC(=O)[C@H](CO)NC(=O)[C@H](Cc1ccccc1)NC(=O)[C@H](CO)NC(=O)CNC(=O)[C@H](CC(=O)O)NC(=O)CNC(=O)[C@@H](N)Cc1c[nH]cn1)[C@@H](C)O)[C@@H](C)CC)C(=O)N[C@@H](CC(N)=O)C(=O)N[C@@H](Cc1c[nH]c2ccccc12)C(=O)N[C@@H](CC(C)C)C(=O)N[C@H](C(=O)N[C@@H](CCC(N)=O)C(=O)N[C@H](C(=O)N[C@@H](CCCCN)C(=O)N[C@H](C(=O)N[C@H](C(=O)N[C@@H](CC(=O)O)C(=O)O)[C@@H](C)O)[C@@H](C)CC)[C@@H](C)O)[C@@H](C)CC` [Teduglutide] the “Body weight of mice at the end of the experiment” value [1, 5] was 18.06 ± 0.49 g, the Serum citrulline content [1, 5] was 14.47 µg/mL and the Small intestine length [1, 5] was 37.4 cm. The Small intestine weight [1, 5] was 1.75 g, the “Body weight of mice before administration” value ([1]; baseline, before administration) was 13.32 ± 0.49 g and the “Comparison of groups in mice body weight, serum citrulline, small intestine length and small intestine weight” value ([1]; text summary of Table 4) was “superior to the control group”. The “Diarrhea score (numerator)” value [2, 6] was 0/0, the “Number of animals with diarrhea (denominator)” value (from here on “Number of animals with diarrhea”) [2, 6] was 0/0 and the “Diarrhea score (numerator)” value [2, 7] was 4/4. The “Number of animals with diarrhea” value [2, 7] was 4/4, the “Diarrhea score (numerator)” value [2, 8] was 4 and the “Number of animals with diarrhea” value [2, 8] was 3. For the same compound, the “Diarrhea score (numerator)” value [2, 9] was 3/3, the “Number of animals with diarrhea” value [2, 9] was 3/3 and the “Rank of citrulline (CIT) content between groups” value ([2]; FIG. 7, before chemotherapy, 48 h and 144 h after chemotherapy) was “citrulline content in the PF01 group>that in the PF04 group>that in the Ted group>that in the Model group”. For the same compound, the “Case sections of jejunum: height of villi and number of crypt cells, rank of groups” value ([2]; FIG. 8, 10th day) was “the PF01 group>the PF04 group>the Ted group>the control group”, the “Serum citrulline content 96 h after the first administration of 5-FU” value ([2]; Table 5, 96 h) was 16.50 µg/mL and the “Serum citrulline content 48 h after the administration of 5-FU” value ([2]; Table 7, 48 h) was 2.04 µg/mL. The “Serum citrulline content 96 h after the administration of 5-FU” value ([2]; Table 7, 96 h) was 3.53 µg/mL, the “Serum citrulline content 144 h after the administration of 5-FU” value ([2]; Table 7, 144 h) was 10.37 µg/mL and the “Serum citrulline content before the administration of 5-FU” value ([2]; Table 7, before 5-FU) was 21.74 µg/mL. The “Body weight before the first administration of 5-FU” value ([2]; Ted 1 mg/Kg sc daily 9 days, PF01/PF04 3 mg/Kg sc every three days x3, 5-FU 50 mg/Kg ip day 4-6) was 272.46 g, the “Body weight 24 h after the first administration of 5-FU” value ([2]; same regimen, 24 h) was 274.36 g and the “Body weight 48 h after the first administration of 5-FU” value ([2]; same regimen, 48 h) was 257.94 g. For the same compound, the “Body weight 72 h after the first administration of 5-FU” value ([2]; same regimen, 72 h) was 260.95 g, the “Body weight 96 h after the first administration of 5-FU” value ([2]; same regimen, 96 h) was 275.43 g and the “half-life in vivo in humans” value [3] was 2 h. The “in vivo half-life in rats” value [4] was 0.5 h.

From US20240150424A1, “DIRECTED CHEMICAL CONJUGATE OF GLUCAGON-LIKE PEPTIDE-2 MUTANT, AND USE THEREOF” (PEG-BIO BIOPHARM CO.,LTD.(CHONGQING), priority 2021, published 2024)
